The values below come from US20210199640A1, “Methods of Normalizing Aberrant Glycolytic Metabolism in Cancer Cells” (The Board of Trustees of the Leland Stanford Junior …, priority 2019, published 2021).

For the assay, the system named is PKM2. Briefly: [18F]DASA-23 cellular uptake as measure of PKM2 expression in U87 GBM cells. Type of assay: cell-based, Human. On the procedure: [18F]DASA-23 can be used to detect changes in GBM metabolism in response to TMZ and TTFields therapies. In one experiment, Human U87 GBM cells were subjected to 200 kHz TTFields, the IC50 of TMZ, or vehicle for three or six days (n≥3/condition), followed by evaluation of [18F]DASA-23 uptake (e.g., FIGS. 2 and 6). Immunofluorescence for PKM2 was performed to confirm the [18F]DASA-23 uptake results. (e.g., FIG. 9). Western blot analysis was performed to determine the effect of TMZ and TTFields exposure on the expression of PKM2. 2-way ANOVA with multiple comparisons was performed. (e.g., FIG. 8). Data are reported as mean±SD.
The ability of [18F]DASA-23 to detect changes in metabolism in response to TMZ and TTFields therapies, in cell culture and an orthotopic murine model of human GBM (FIG. 6) was evaluated. There was a significant interaction between the treatment (vehicle, TMZ, or TTFields) and treatment duration (3 or 6 days) on PKM2 expression as measured by cellular uptake of [18F]DASA-23 (p=0.005, 2-way ANOVA) (FIG. 6).

The mark [1] stands for this setting: U87 cells, after exposure to TTFields, over 60 minutes, FIG. 7.

Each structure is given as a SMILES string.

Consider `Cn1nnc2c(C(N)=O)ncn2c1=O` [TMZ, Temozolomide], for which the “reduction of PKM2 expression” value (U87 glioblastoma cells, over a 30 minute period, after treatment with chemotherapy (TMZ), FIG. 6) is “at least 10%”.
Consider `COc1ccc(S(=O)(=O)N2CCN(S(=O)(=O)c3c(F)cccc3[18F])CC2)cc1` [[18F]DASA-23, 1-((2-fluoro-6-[18F]fluorophenyl)sulfonyl)-4-((4-methoxyphenyl)sulfonyl)piperazine], for which the “reduction of [18F]DASA-23 uptake” value (U87 cells, after exposure to TTFields, over 30 minutes, FIG. 7) is listed as “at least 5%”. Under setting [1], the “reduction of [18F]DASA-23 retention” value was “at least 20%” and the “reduction of [18F]DASA-23 uptake” value is on record as “at least 10%”.
